What all share (format): cell-based, murine
One test has as its system IL-1β. Nature of the test: LPS-induced IL-1β expression in BV2 cells (RT-PCR). The procedure:
(§1) PGC-1α expression was determined by RT-PCR.
(§2) Then the cells were treated with 100 ng/mL LPS for 4 hrs. […] (**p<0.01 vs. control; ##p<0.001 vs. LPS).
(§3) Cell lysate was collected for Western blotting analysis.
(§4) MN9D cells were cultured in Dulbecco's Modified Eagle Medium (DMEM) supplemented with 10% fetal bovine serum, and 3.7 g/L sodium bicarbonate at 37° C., 5% carbon dioxide. BV-2 cells (murine microglia) were maintained in DMEM supplemented with 10% fetal bovine serum and antibiotics (penicillin, 100 U/mL, streptomycin […]). Antibiotics were omitted for the fenofibrate evaluation study.
(§5) AMPK is an energy sensor and can phosphorylate PGC-1α. It is plausible that AMPK phosphorylates PGC-1α and that PGC-1α then acts through positive feedback, binding to myocyte enhancer factor (MEF)-binding site to increase its own gene expression.

The subject of a further test is PGC-1α. Nature of the test: PGC-1α expression in LPS-treated BV2 cells (RT-PCR). The note with it: GW6471 0.25-2 μM 0.5 hrs, 20 μM fenofibrate 18 hrs, 100 ng/mL LPS 4 hrs. The procedure: as §1, §2, §4
For a further test, the system named is AMPK. Nature of the test: AMPK phosphorylation in BV2 cells (Western blot). As to conditions: compound C 0.5 hour, then fenofibrate 1 hour. The protocol:
as §3
BV-2 cells (murine microglia) were maintained in Dulbecco's Modified Eagle Medium supplemented with 10% fetal bovine serum and antibiotics (penicillin, 100 U/mL, streptomycin 100 μg/mL). Antibiotics were omitted for the fenofibrate evaluation study.
as §5
Background: In western blotting, separated proteins are transferred to a membrane and probed.

Take `CCC(=O)NC[C@H](Cc1ccc(OCCc2nc(-c3ccccc3)oc2C)cc1)N/C(C)=C\C(=O)c1ccc(C(F)(F)F)cc1` [GW6471]: the “effect on fenofibrate mediated anti-inflammatory effects (IL-1β mRNA)” value with IL-1β (GW6471 0.25-2 μM 0.5 hrs, 20 μM fenofibrate 18 hrs, 100 ng/mL LPS 4 hrs) is given as “fails to suppress”. Also, the “effect on fenofibrate mediated PGC-1α upregulation” value with PGC-1α is reported as “fails to suppress”.

Take `c1cc(-c2cnn3cc(-c4ccc(OCCN5CCCCC5)cc4)cnc23)ccn1` [compound C]: the “effect on fenofibrate mediated anti-inflammation (IL-1β gene expression)” value in the test with IL-1β (Compound C 0.5 hour, then fenofibrate overnight, LPS) is on record as “weakened the anti-inflammatory effects of fenofibrate”. The “AMPK phosphorylation under fenofibrate” value with AMPK is reported as “concentration-dependent inhibitory effect”.

Values taken from patent publication US20160220523A1 (GEORGETOWN UNIVERSITY, priority 2013, published 2016).
